Assay results from ChEMBL document CHEMBL1201862, “PubChem BioAssay data set” (2004).
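Dose response: 5 concentrations. Exposure: 48 h. Format: 96-well plates. Endpoint: linear interpolation; highest concentration if not reached. GI50: concentration for 50% inhibition of growth.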 The source made the active and inactive calls. Cut-off read from the data, not from the text of the source: active = GI50 up to about 1.1 µM and inactive = higher.

Key:
Experiment in all cases: NCI anticancer screen, dose series, 48 h
A498 = tested on: A498
BT-549 = tested on: BT-549
HL-60 = tested on: HL-60
HOP-92 = tested on: HOP-92
HT-29 = tested on: HT-29
IGROV-1 = tested on: IGROV-1
KM12 = tested on: KM12
LOX IMVI = tested on: LOX IMVI
M14 = tested on: M14
MDA-MB-435 = tested on: MDA-MB-435
MDA-N = tested on: MDA-N
NCI-H226 = tested on: NCI-H226
NCI-H460 = tested on: NCI-H460
SF-268 = tested on: SF-268
SF-539 = tested on: SF-539
SK-MEL-28 = tested on: SK-MEL-28
SN12C = tested on: SN12C
U-251 = tested on: U-251
UACC-62 = tested on: UACC-62

Measured: GI50

CC(C)(C)c1cc2c(O)c(c1)Cc1cc(C(C#N)(Cc3ccc4ccccc4c3)Cc3ccc4ccccc4c3)cc(c1O)Cc1cc(C(C)(C)C)cc(c1O)Cc1cc(C(C#N)(Cc3ccc4ccccc4c3)Cc3ccc4ccccc4c3)cc(c1O)C2
inactive: A498 > 100 µM | BT-549 > 100 µM | HL-60 > 100 µM | HOP-92 > 100 µM | HT-29 > 100 µM | IGROV-1 > 100 µM | KM12 > 100 µM | LOX IMVI > 100 µM | M14 > 100 µM | MDA-MB-435 > 100 µM | MDA-N > 100 µM | NCI-H226 > 100 µM | NCI-H460 > 100 µM | SF-268 > 100 µM | SF-539 > 100 µM | SK-MEL-28 > 100 µM | SN12C > 100 µM | U-251 67 µM | UACC-62 > 100 µM

CCOC(=O)/C=C(\C(=O)OCC)n1cc(C)c(=O)n(Cc2cnnn2CCCCOC(C)=O)c1=O
inactive: A498 22.2 µM | BT-549 8.28 µM | HL-60 1.91 µM | HOP-92 2.1 µM | HT-29 5.98 µM | IGROV-1 12.7 µM | KM12 16.7 µM | LOX IMVI 4.06 µM | M14 20.9 µM | MDA-MB-435 7.69 µM | MDA-N 20.3 µM | NCI-H226 7.43 µM | NCI-H460 12.4 µM | SF-268 15.7 µM | SF-539 2.36 µM | SK-MEL-28 7.35 µM | SN12C 12.1 µM | U-251 17.3 µM | UACC-62 15 µM

CCOC(=O)/C(=C\c1ccc(F)cc1)C(C)=O
inactive: A498 17.8 µM | BT-549 21.5 µM | HL-60 19.5 µM | HOP-92 15.1 µM | HT-29 24.4 µM | IGROV-1 18.2 µM | KM12 24.3 µM | LOX IMVI 17.5 µM | M14 22.9 µM | MDA-MB-435 30.1 µM | MDA-N 37.8 µM | NCI-H226 35.5 µM | NCI-H460 32.5 µM | SF-268 29.1 µM | SF-539 34 µM | SN12C 63 µM | U-251 19.1 µM | UACC-62 18.9 µM

COC(=O)c1c(O)ccc2c1c1c(n2Cc2ccccn2)C(=O)c2ccccc2C1=O
inactive: A498 > 100 µM | BT-549 > 100 µM | HL-60 62.2 µM | HOP-92 26.5 µM | HT-29 4.22 µM | IGROV-1 26.4 µM | KM12 46.2 µM | M14 > 100 µM | MDA-MB-435 86.7 µM | MDA-N 97.5 µM | NCI-H226 70.1 µM | NCI-H460 40.3 µM | SF-268 35.9 µM | SF-539 17.1 µM | SK-MEL-28 19.2 µM | SN12C > 100 µM | U-251 35.7 µM | UACC-62 > 100 µM

CC(C)CC(NC(=O)C(CCI)Cc1ccccc1)C(=O)Nc1ccccc1 (centres undefined)
inactive: A498 > 100 µM | BT-549 10.8 µM | HL-60 18 µM | HOP-92 > 100 µM | IGROV-1 51.1 µM | KM12 37.5 µM | LOX IMVI 33.3 µM | M14 35.6 µM | MDA-MB-435 58.5 µM | MDA-N > 100 µM | NCI-H226 58.6 µM | NCI-H460 80.2 µM | SF-539 > 100 µM | SK-MEL-28 > 100 µM | SN12C > 100 µM | U-251 > 100 µM | UACC-62 > 100 µM

COC(=O)[C@@]1(Cc2ccc(OC(C)=O)cc2)Cc2cc3ccccc3n2N1
inactive: A498 23.1 µM | BT-549 28.2 µM | HL-60 20.3 µM | HOP-92 75 µM | HT-29 36 µM | IGROV-1 55.8 µM | KM12 60.7 µM | LOX IMVI 38.6 µM | M14 39.4 µM | MDA-MB-435 43.6 µM | MDA-N 26.5 µM | NCI-H226 63.4 µM | SF-268 60.4 µM | SF-539 58.7 µM | SK-MEL-28 54.6 µM | SN12C 29.6 µM | U-251 30.1 µM | UACC-62 57.4 µM
